Measurements reported in US5654299A, “Aryl substituted heterocycles” (Zeneca Limited, priority 1993, dated 1997).
Values joined by “and” are separate entries in the source; they are usually repeats but may differ in a detail not shown here. Identical values can stand only once. Counter-ions that a name gives are not always drawn. Like-named read-outs stand apart in the source and are kept apart here.

How the values were obtained:
human NK2 receptor = target: T1, human NK2 receptor (Homo sapiens, UniProt P21452); assay: Neurokinin A (NKA) Receptor-binding Assay (Test A), 3H-NKA binding to MEL cell membranes (MELM)
T1 sequence (P21452 1-398): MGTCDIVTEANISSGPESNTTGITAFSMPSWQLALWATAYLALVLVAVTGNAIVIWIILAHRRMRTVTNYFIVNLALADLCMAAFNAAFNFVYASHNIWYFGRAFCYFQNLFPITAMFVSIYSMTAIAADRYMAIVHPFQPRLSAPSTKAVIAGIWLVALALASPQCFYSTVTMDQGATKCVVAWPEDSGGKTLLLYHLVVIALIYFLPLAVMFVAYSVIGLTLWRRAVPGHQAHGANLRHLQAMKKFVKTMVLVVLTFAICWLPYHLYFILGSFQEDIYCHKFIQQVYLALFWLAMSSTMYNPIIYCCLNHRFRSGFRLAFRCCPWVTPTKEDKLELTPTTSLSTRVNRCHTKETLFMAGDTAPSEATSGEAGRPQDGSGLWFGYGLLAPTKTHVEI
Protocol: MEL C88 cells (A. Deisseroth et al., Cell (1978) 1-5, 55-63) were electroporated (M. Antoniou, Methods Molecular Biology (1991) 7, 421-434) with PvuI linearized pGSE1417/human NK2 receptor DNA. Directly after transfection, cells were diluted in culture medium to 10^4 and 10^5 cell per mL and 1 mL aliquots transferred to each well of a 24-well plate. G418 was added to a concentration of 1 mg/mL 24 hours after the transfection to select for stable transfectants. Individual clones were picked or pooled to generate populations seven to ten days after the addition of selective medium. […] Samples were taken 4 days post induction for mRNA and NKA binding analyses.
Membrane preparations (MELM) prepared from the MEL cells containing high-affinity NK2 receptors were prepared according to a published protocol (D. Aharony, et al., Neuropeptides (1992) 23, 121-130) with the following minor modifications: (1) Iodoacetamide (1 mM) was included in the homogenization buffer; (2) Homogenization was as published but for a shorter period of 10 seconds once and at a slower speed (setting 10); and (3) The equilibration step with KCl/EDTA was not performed.

guinea pig trachea = target: T2, guinea pig trachea (Cavia porcellus, UniProt Q64077); assay: Guinea Pig Trachea Assay (Test B), antagonism of NKA or [β-ala^8]-NKA(4-10); type: cell-based; settings: for Kb: guinea pig trachea, apparent dissociation constant, -log molar KB
T2 sequence (Q64077 1-402): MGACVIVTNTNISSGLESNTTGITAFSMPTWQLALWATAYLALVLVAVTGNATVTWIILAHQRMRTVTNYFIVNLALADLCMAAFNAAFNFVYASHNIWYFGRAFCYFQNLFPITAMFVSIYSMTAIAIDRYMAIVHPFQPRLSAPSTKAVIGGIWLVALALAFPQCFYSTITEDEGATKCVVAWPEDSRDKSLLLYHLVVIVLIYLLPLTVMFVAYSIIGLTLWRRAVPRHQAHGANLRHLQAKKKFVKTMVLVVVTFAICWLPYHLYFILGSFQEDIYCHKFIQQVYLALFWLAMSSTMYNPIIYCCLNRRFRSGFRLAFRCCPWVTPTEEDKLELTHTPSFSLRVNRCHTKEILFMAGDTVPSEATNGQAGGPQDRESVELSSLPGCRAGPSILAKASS
Protocol: In the test described below either NKA or [β-ala^8 ]-NKA(4-10) is used as an agonist. The chosen agonist is referred to as AG throughout the description.
Male guinea pigs are killed by a sharp blow to the back of the head. The trachea are removed, trimmed of excess tissue and divided into two segments. Each segment is suspended as a ring between stainless steel stirrups in water-jacketed (37.5° C.) tissue baths containing a physiological salt solution of the following composition (mM): NaCl, 119; KCl 4.6; CaCl2, 1.8; MgCl2, 0.5; NaH2 PO4, 1; NaHCO3, 25; glucose, 11; thiorphan, 0.001; and indomethacin, 0.005; gassed continuously with 95% O2 -%5 CO2. Initial tension placed on each tissue is 1 g, which is maintained throughout a 0.5 to 1.5 hour equilibration period before addition of other drugs. Contractile responses are measured on a Grass polygraph via Grass FT-03 force transducers.
Tissues are challenged repetitively with a single concentration of AG (10 nM) with intervening 30 min periods with washing to allow the tension to return to baseline levels. The magnitude of the contractions to AG reaches a constant level after two challenges, and each Compound is tested for inhibition of responses to AG by addition to the tissue bath 15 minute before the third or subsequent exposure to the agonist. The contractile response to AG in the presence of Compound is compared to that obtained with the second AG challenge (in the absence of Compound). Percent inhibition is determined when a Compound produces a statistically significant (p<0.05) reduction of the contraction and is calculated using the second contractile response as 100%.
Potencies of selected Compounds are evaluated by calculating apparent dissociation constants (KB) for each concentration tested using the standard equation:
KB =[antagonist]/(dose ratio-1)
where dose ratio=antilog[(AG -log molar EC50 without Compound)-(AG -log molar EC50 with Compound)]. The KB values may be converted to the negative logarithms and expressed as -log molar KB (i.e. pKB). For this evaluation, complete concentration-response curves for AG are obtained in the absence and presence of Compound (30 min incubation period) using paired tracheal rings. The potency of AG is determined at 50% of its own maximum response level in each curve. The EC50 values are converted to the negative logarithms and expressed as -log molar EC50. Maximum contractile responses to AG are determined by expressing the maximum response to AG as a percentage of the contraction caused by carbachol (30 μM), added after the initial equilibration period. When a statistically significant (p<0.05) reduction of the maximum response to AG is produced by a compound, the percent inhibition is calculated relative to the percentage of carbachol contraction in the untreated, paired tissue used as 100%.

[1] = test system: NKA receptor from rat duodenum membranes; settings: Edmonds-Alt (1993), cited from earlier work; for Ki: rat duodenum membranes, read-out: inhibition constant (Ki), [125I]-NKA binding
NK2 receptor = assay: Guinea Pig Labored Abdominal Breathing (Dyspnea) Assay (Test C), [β-ala^8]-NKA(4-10) aerosol; type: in vivo; settings: 5 μmol/kg p.o., 120 min prior
Protocol: Guinea Pig Labored Abdominal Breathing (Dyspnea) Assay (Test C)
Using the clear plastic chamber described previously by Snyder et al. to secure guinea pigs for a head-only aerosol exposure to bronchoconstrictor agonists, agonist is administered by aerosol to six conscious guinea pigs simultaneously during each maneuver. The tachykinin NK2-selective agonist, [β-ala^8 ]-NKA(4-10), 3×10^-5 M, is aerosolized from a Devilhiss Model 25 ultrasonic nebulizer into an air stream entering the chamber at a rate of 2 L/minute.
Guinea pigs (275-400 g) are fasted for approximately 16 hours prior to experimentation. Compounds to be evaluated for blockade of effects of [β-ala^8 ]-NKA(4-10) or their vehicle (10% PEG400 in saline) are administered p.o. or i.v. at various times before aerosol agonist challenge. All animals are pretreated with atropine (10 mg/kg, i.p., 45 minutes pretreatment) indomethacin (10 mg/kg, i.p., 30 minutes pretreatment), propranolol (5 mg/kg, i.p., 30 minutes pretreatment), and thiorphan (1 mg/ml aerosol for 5 minutes, 15 minutes pretreatment).
Aerosol challenge with the agonist produces an initial increase in respiratory rate followed by a decrease with early signs of minor involvement of the abdominal muscles. The respiratory rate decreases further and the breathing becomes more labored with greater involvement of the abdominal muscles as exposure continues. The distinctly recognizable end point is the point where the breathing pattern of the guinea pig is consistently slow, deep, and deliberate, showing marked involvement of the abdominal muscles. Time, in seconds, from the onset of aerosol challenge to this end point is determined for each animal by using a stopwatch. […] Antagonists result in an increase in the time to reach the end point. Animals receive the aerosol administration of agonist for a maximum time of 780 seconds.
Differences between drug treated groups and corresponding vehicle treated control groups are compared using Student's t-test for unpaired observations.

neurokinin receptors = settings: EPA 559538; cited from earlier work
[2] = read-out: pKB (Test B) (converted)

**Q.** With `CN(CC(CCN1CC[C@H](c2ccccc2)[C@@H](O)C1)c1ccc(Cl)c(Cl)c1)C(=O)c1ccccc1` (relative stereo) [Example 10, N-[2-(3,4-Dichlorophenyl)-4-[(3R*,4R*)-3-hydroxy-4-phenylpiperidino]butyl-N-methylbenzamide hydrochloride] as the molecule, how does the Ki (human NK2 receptor; read-out: Ki (Test A)) read?
**A.** Its Ki is 13 nM.

**Q.** And the Kb (guinea pig trachea; [2])?
**A.** Its Kb is 10 nM.

**Q.** Which “biological activity of the benzamide in words” value [1] does the source give for `CN(CC(CCN1CCC(c2ccccc2)CC1)c1ccc(Cl)c(Cl)c1)C(=O)c1ccccc1.Cl` (centres unmarked) [Example 1, N-[2-(3,4-Dichlorophenyl)-4-(4-phenylpiperidino)butyl]-N-methylbenzamide hydrochloride] here?
**A.** The value was “lack of biological activity”.

**Q.** What about the Ki [1] of the same molecule?
**A.** The Ki was > 100 nM.

**Q.** And the “number fully protected/total number tested (Test C)” value (NK2 receptor)?
**A.** The value was 0/6.

**Q.** What about the “percent protection (Test C)” value (NK2 receptor) of the same molecule?
**A.** The value was 17%.

**Q.** And the “NK2 antagonism in words, Test A” value (human NK2 receptor; in vitro screen Test A)?
**A.** The value was “potent NK2 antagonist”.

**Q.** What about the Ki (human NK2 receptor; read-out: Ki (Test A)) of the same molecule?
**A.** Its Ki is 2.6 nM.

**Q.** And the “NK2 antagonism in words, Test B” value (guinea pig trachea; functional assay Test B)?
**A.** The value was “potent NK2 antagonist”.

**Q.** And the Kb (guinea pig trachea; [2])?
**A.** The Kb was 10 nM and 6.31 nM.

**Q.** With `COc1ccccc1C1CCN(CCC(CN(C)C(=O)c2ccccc2)c2ccc(Cl)c(Cl)c2)CC1` (centres unmarked) [Example 2, N-[2-(3,4-Dichlorophenyl)-4-[4-(2-methoxyphenyl)piperidino]butyl]-N-methylbenzamide hydrochloride] as the molecule, how does the Ki (human NK2 receptor; read-out: Ki (Test A)) read?
**A.** Its Ki is 9 nM.

**Q.** And the Kb (guinea pig trachea; [2])?
**A.** The Kb was 5.01 nM.

**Q.** For `CN(CC(CCN1CCC(c2ccccc2O)CC1)c1ccc(Cl)c(Cl)c1)C(=O)c1ccccc1` (centres unmarked) [Example 6, N-[2-(3,4-Dichlorophenyl)-4-[4-(2-hydroxyphenyl)piperidino]butyl]-N-methylbenzamide hydrochloride], which Ki (human NK2 receptor; read-out: Ki (Test A)) is on record?
**A.** The Ki was 2.8 nM.

**Q.** What about the Kb (guinea pig trachea; [2]) of the same molecule?
**A.** Its Kb is 3.16 nM.

**Q.** With `Cc1nnc(C2CCN(CCC(CN(C)C(=O)c3ccccc3)c3ccc(Cl)c(Cl)c3)CC2)o1` (centres unmarked) [Example 7, N-[2-(3,4-Dichlorophenyl)-4-[4-(5-methyl-1,3,4-oxadiazol-2-yl)piperidino]butyl]-N-methylbenzamide hydrochloride] as the molecule, how does the Ki (human NK2 receptor; read-out: Ki (Test A)) read?
**A.** Its Ki is 21.1 nM.

**Q.** What about the Kb (guinea pig trachea; [2]) of the same molecule?
**A.** Its Kb is 79.4 nM.

**Q.** With `CN(C[C@@H](CCN1CCC(c2cccnc2)CC1)c1ccc(Cl)c(Cl)c1)C(=O)c1ccccc1.Cl` [Example 9, (S)-N-[2-(3,4-Dichlorophenyl)-4-[4-(3-pyridyl)piperidino]butyl]-N-methylbenzamide hydrochloride] as the molecule, how does the “number fully protected/total number tested (Test C)” value (NK2 receptor) read?
**A.** Its value is 5/6.

**Q.** And the “percent protection (Test C)” value (NK2 receptor)?
**A.** Its value is 90%.

**Q.** What about the Ki (human NK2 receptor; read-out: Ki (Test A)) of the same molecule?
**A.** The Ki was 2 nM.

**Q.** What about the Kb (guinea pig trachea; [2]) of the same molecule?
**A.** The Kb was 2.51 nM.

**Q.** Which “number fully protected/total number tested (Test C)” value (NK2 receptor) does the source give for `CSc1ccccc1C1CCN(CCC(CN(C)C(=O)c2ccccc2)c2ccc(Cl)c(Cl)c2)CC1.Cl` (centres unmarked) [Example 13, N-[2-(3,4-Dichlorophenyl)-4-[4-(2-methylthiophenyl)-piperidino]butyl]-N-methylbenzamide hydrochloride] here?
**A.** The value was 3/6.

**Q.** What about the “percent protection (Test C)” value (NK2 receptor) of the same molecule?
**A.** Its value is 78%.

**Q.** What about the Ki (human NK2 receptor; read-out: Ki (Test A)) of the same molecule?
**A.** Its Ki is 3 nM.

**Q.** What about the Kb (guinea pig trachea; [2]) of the same molecule?
**A.** Its Kb is 2.51 nM.

**Q.** Which results are given for `CN(C[C@@H](CCN1CCC(c2ccccc2[S+](C)[O-])CC1)c1ccc(Cl)c(Cl)c1)C(=O)c1ccccc1.Cl` (stereo partly drawn) [Example 14, (S)-N-[2-(3,4-Dichlorophenyl)-4-[4-(2-methylsulfinylphenyl)piperidino]butyl]-N-methylbenzamide hydrochloride]?
**A.** number fully protected/total number tested (Test C) (NK2 receptor): 8/8; percent protection (Test C) (NK2 receptor): 100%; Ki (human NK2 receptor; read-out: Ki (Test A)): 0.3 nM; Kb (guinea pig trachea; [2]): 0.316 nM

**Q.** For `CSc1ccc(C2CCN(CC[C@H](CN(C)C(=O)c3ccccc3)c3ccc(Cl)c(Cl)c3)CC2)cc1.Cl` [Example 15, (S)-N-[2-(3,4-Dichlorophenyl)-4-[4-(4-methylthiophenyl)piperidino]butyl]-N-methylbenzamide hydrochloride], which “number fully protected/total number tested (Test C)” value (NK2 receptor) is on record?
**A.** The value was 6/6.

**Q.** And the “percent protection (Test C)” value (NK2 receptor)?
**A.** The value was 100%.

**Q.** What about the Ki (human NK2 receptor; read-out: Ki (Test A)) of the same molecule?
**A.** The Ki was 2 nM.

**Q.** What about the Kb (guinea pig trachea; [2]) of the same molecule?
**A.** Its Kb is 2 nM.

**Q.** Which “number fully protected/total number tested (Test C)” value (NK2 receptor) does the source give for `CN(C[C@@H](CCN1CCC(c2ccc([S+](C)[O-])cc2)CC1)c1ccc(Cl)c(Cl)c1)C(=O)c1ccccc1.Cl` (stereo partly drawn) [Example 16, (S)-N-[2-(3,4-Dichlorophenyl)-4-[4-(4-methylsulfinylphenyl)piperidino]butyl]-N-methylbenzamide hydrochloride] here?
**A.** The value was 5/6.

**Q.** What about the “percent protection (Test C)” value (NK2 receptor) of the same molecule?
**A.** Its value is 88%.

**Q.** And the Ki (human NK2 receptor; read-out: Ki (Test A))?
**A.** The Ki was 0.6 nM.

**Q.** What about the Kb (guinea pig trachea; [2]) of the same molecule?
**A.** Its Kb is 6.31 nM.

**Q.** For `CN(CC(CCN1CCC2(CC1)OC(=O)c1ccccc12)c1ccc(Cl)c(Cl)c1)C(=O)c1ccccc1` (centres unmarked) [Example 24, N-[2-(3,4-Dichlorophenyl)-4-(3-oxospiro[isobenzofuran-1(3H),4'-piperidin]-1'-yl)butyl]-N-methylbenzamide hydrochloride], which Ki (human NK2 receptor) is on record?
**A.** The Ki was 3.5 nM.

**Q.** What about the Kb (guinea pig trachea; pKB (Test B)) of the same molecule?
**A.** The Kb was 6.31 nM.

**Q.** Which “number fully protected/total number tested (Test C)” value (NK2 receptor) does the source give for `CN(C[C@@H](CCN1CCC(c2ccccn2)CC1)c1ccc(Cl)c(Cl)c1)C(=O)c1ccccc1.Cl` [Example 27, (S)-N-[2-(3,4-Dichlorophenyl)-4-[4-(2-pyridyl)piperidino]butyl]-N-methylbenzamide hydrochloride] here?
**A.** The value was 2/6.

**Q.** What about the “percent protection (Test C)” value (NK2 receptor) of the same molecule?
**A.** Its value is 54%.

**Q.** What about the Ki (human NK2 receptor; read-out: Ki (Test A)) of the same molecule?
**A.** Its Ki is 2 nM.

**Q.** What about the Kb (guinea pig trachea; [2]) of the same molecule?
**A.** Its Kb is 12.6 nM.

**Q.** Which “affinity for neurokinin receptors” value (neurokinin receptors) does the source give for `CC(C)Oc1cccc(CC(=O)N(C)CC(CCN2CCC(c3ccccc3)CC2)c2ccc(Cl)c(Cl)c2)c1` (centres unmarked) [N-[2-(3,4-dichlorophenyl)-4-(4-phenylpiperidino)butyl]-N-methyl-3-isopropoxyphenylacetamide] here?
**A.** The value was “high affinity”.

**Q.** With `CC(=O)NC1(c2ccccc2)CCN(CC[C@H](CN(C)C(=O)c2ccccc2)c2ccc(Cl)c(Cl)c2)CC1` [SR 48968, N-[4-(4-acetylamino-4-phenylpiperidino)-2-(3,4-dichlorophenyl)butyl]-N-methylbenzamide, reference compound] as the molecule, how does the Ki [1] read?
**A.** The Ki was 0.5 nM.
